Test results published in US12247017B2, “Herbicidal uracilpyridines” (BASF SE, priority 2019, dated 2025).

What was measured:
Conditions in all cases: application rate 16 g/ha, post-emergence method, scale from 0 to 100
AMARE = test: greenhouse herbicidal activity, post-emergence, AMARE; assay type: in vivo, Amaranthus retroflexus
Source text: (§1) The seeds of the test plants were sown separately for each species. For the pre-emergence treatment, the active ingredients, which had been suspended or emulsified in water, were applied directly after sowing by means of finely distributing nozzles. The containers were irrigated gently to promote germination and growth and subsequently covered with transparent plastic hoods until the test plants had rooted. This cover caused uniform germination of the test plants, unless this had been impaired by the active ingredients. For the post-emergence treatment, the test plants were first grown to a height of 3 to 15 cm, depending on the plant habit, and only then treated with the active ingredients which had been suspended or emulsified in water. For this purpose, the test plants were either sown directly and grown in the same containers, or they were first grown separately as seedlings and transplanted into the test containers a few days prior to treatment. Depending on the species, the test plants were kept at 10-25° C. or 20-35° C., respectively. The test period extended over 2 to 4 weeks. During this time, the test plants were tended, and their response to the individual treatments was evaluated. Evaluation was carried out using a scale from 0 to 100. […]

CHEAL = test: greenhouse herbicidal activity, post-emergence, CHEAL; assay type: in vivo, Chenopodium album
Source text: as §1

ECHCG = test: greenhouse herbicidal activity, post-emergence, ECHCG; assay type: in vivo, Echinocloa crus-galli
Source text: as §1

SETVI = test: greenhouse herbicidal activity, post-emergence, SETVI; assay type: in vivo, Setaria viridis
Source text: as §1

## COC(=O)CCNC(=O)C(C)Sc1nc(-n2c(=O)cc(C(F)(F)F)n(C)c2=O)c(F)cc1Cl (stereo not shown) [Example 1, Methyl 3-[2-[[3-chloro-5-fluoro-6-[3-methyl-2,6-dioxo-4-(trifluoromethyl)pyrimidin-1-yl]-2-pyridyl]sulfanyl]propanoylamino]propanoate]
AMARE
  herbicidal activity against AMARE: very good herbicidal activity (a very good herbicidal activity is given at values of at least 85)
CHEAL
  herbicidal activity against CHEAL: very good herbicidal activity (a very good herbicidal activity is given at values of at least 85)
ECHCG
  herbicidal activity against ECHCG: very good herbicidal activity (a very good herbicidal activity is given at values of at least 85)
SETVI
  herbicidal activity against SETVI: very good herbicidal activity (a very good herbicidal activity is given at values of at least 85)

## CCOC(=O)CCNC(=O)COc1nc(-n2c(=O)cc(C(F)(F)F)n(C)c2=O)c(F)cc1Cl [Example 2]
AMARE
  herbicidal activity against AMARE: very good herbicidal activity (a very good herbicidal activity is given at values of at least 85)
CHEAL
  herbicidal activity against CHEAL: very good herbicidal activity (a very good herbicidal activity is given at values of at least 85)
SETVI
  herbicidal activity against SETVI: very good herbicidal activity (a very good herbicidal activity is given at values of at least 85)
